Assay results from patent US20020137929A1, “1 - (3-heterocyclylphenyl) isothiourea, -isourea, -guanidine and -amidine herbicidal agents” (Intellectual Property Department, BASF Aktiengesellschaft, priority 1998, published 2002).

Columns and labels:
[1] = test system: ZEAMX (Corn, Field); assay: Postemergence herbicidal evaluation; assay type: in vivo, Zea mays; conditions: postemergence
Method in brief: (§1)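 Visual 0–9 rating versus control (stand, vigor, malformation, size, chlorosis, overall appearance), taken four to five weeks post-spray. Two-week-old seedlings received roughly 0.0156–0.500 kg/ha active in acetone/water (50/50) with 0.5% TWEEN 20 via nozzle at 40 psi.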

[2] = test system: SETVI (Foxtail, Green); assay: Preemergence herbicidal evaluation; assay type: in vivo, Setaria viridis; conditions: rated 4-5 weeks after treatment
Method in brief: (§2)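 Sown cups got a single aqueous acetone spray of test compound (roughly 0.0156–0.500 kg/ha) before seedlings emerged. Evaluation, 4–5 weeks on, used a 0–9 visual scale covering plant stand, vigor, size, malformation, chlorosis and general appearance compared with controls.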

[3] = test system: SETVI (Foxtail, Green); assay: Postemergence herbicidal evaluation; assay type: in vivo, Setaria viridis; conditions: postemergence
Method in brief: as §1

[4] = test system: ECHCG (Barnyardgrass); assay: Preemergence herbicidal evaluation; assay type: in vivo, Echinochloa crus-galli; conditions: rated 4-5 weeks after treatment
Method in brief: as §2

[5] = test system: ECHORC (Watergrass (Calif.)); assay: Postemergence weed control under flooded paddy conditions; assay type: in vivo, Echinochloa oryzoides; conditions: postemergence weeds, rated 3 to 4 weeks after treatment
Method in brief: (§3)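 Injury ratings (0–9 scale covering stand, vigor, malformation, size, chlorosis and overall appearance versus control) were made three to four weeks after treatment. Test material, about 0.0313 to 0.500 kg/ha a.i. in 50/50 v/v aqueous/acetone, was added to flood water 1.5 to 3 cm deep over 3 to 5 cm weeds and 1.5 to 2.5 leaf rice.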

[6] = test system: CYPIR (Rice Flatsedge); assay: as above; assay type: in vivo, Cyperus iria; conditions: postemergence weeds, rated 3 to 4 weeks after treatment
Method in brief: as §3

[7] = test system: CYPIR (Rice Flatsedge); assay: Preemergence weed control under flooded paddy conditions; assay type: in vivo, Cyperus iria; conditions: rated 3-4 weeks after treatment
Method in brief: (§4)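 Visual injury scored 0-9 against control three to four weeks post-treatment, greenhouse-grown. Application: acetone/water (50/50) solutions dosed directly into flood water (1.5-3 cm over silt loam, planted top 0.5 cm), roughly 0.0313 to 0.500 kg/ha active ingredient.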

[8] = test system: SAGPY (Arrowhead (Pygmaea)); assay: Postemergence weed control under flooded paddy conditions; assay type: in vivo, Sagittaria pygmaea; conditions: postemergence weeds, rated 3 to 4 weeks after treatment
Method in brief: as §3

[9] = test system: CYPSE (Flatsedge); assay: Preemergence weed control under flooded paddy conditions; assay type: in vivo, Cyperus serotinus; conditions: rated 3-4 weeks after treatment
Method in brief: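 Values are visual 0-9 scores against a control for a preemergence application into paddy flood water at about 0.0313 to 0.500 kg/ha. Greenhouse duration was three to four weeks.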

[10] = test system: ZEAMX (Corn, Field); assay: Preemergence herbicidal evaluation; assay type: in vivo, Zea mays; conditions: rated 4-5 weeks after treatment
Method in brief: as §2

[11] = test system: ECHORC (Watergrass (Calif.)); assay: Preemergence weed control under flooded paddy conditions; assay type: in vivo, Echinochloa oryzoides; conditions: rated 3-4 weeks after treatment
Method in brief: as §4

[12] = test system: CYPSE (Flatsedge); assay: Postemergence weed control under flooded paddy conditions; assay type: in vivo, Cyperus serotinus; conditions: postemergence weeds, rated 3 to 4 weeks after treatment
Method in brief: as §3

[13] = test system: ORYSAT (Rice, Tebonnet); assay: Postemergence herbicidal evaluation; assay type: in vivo, Oryza sativa, (L.) Tebonnet; conditions: postemergence
Method in brief: as §1

[14] = test system: TRZAWR (Wheat, Winter, cv Riband); assay: Preemergence herbicidal evaluation; assay type: in vivo, Triticum aestivum; conditions: rated 4-5 weeks after treatment
Method in brief: as §2

C[C@@H](C(=O)OC(C)(C)C)N1C(=O)CSC1=Nc1cc(-n2c(=O)cc(C(F)(F)F)n(C)c2=O)c(F)cc1Cl [Compound 75, tert-Butyl 2-{{2-chloro-5-[3,6-dihydro-3-methyl-2,6-dioxo-4-(trifluoromethyl)-1(2H)-pyrimidinyl]-4-fluorophenyl}imino}-α-methyl-4-oxo-3-thiazolidineacetate, L-]
ZEAMX herbicidal rating ([1]; rate 0.0158 kg/ha): 4.0
ZEAMX herbicidal rating ([1]; rate 0.0315 kg/ha): 4.5
ZEAMX herbicidal rating ([1]; rate 0.0630 kg/ha): 5.0
Preemergence herbicidal rating SETVI ([2]; rate 0.0156 kg/ha): 0.0
Preemergence herbicidal rating SETVI ([2]; rate 0.0313 kg/ha): 0.0
Preemergence herbicidal rating SETVI ([2]; rate 0.0625 kg/ha): 0.0
Preemergence herbicidal rating SETVI ([2]; rate 0.1250 kg/ha): 9.0
Preemergence herbicidal rating SETVI ([2]; rate 0.2500 kg/ha): 9.0
SETVI herbicidal rating ([3]; rate 0.0158 kg/ha): 1.0
SETVI herbicidal rating ([3]; rate 0.0315 kg/ha): 5.0
SETVI herbicidal rating ([3]; rate 0.0630 kg/ha): 3.0
Preemergence herbicidal rating ECHCG ([4]; rate 0.0156 kg/ha): 0.0
Preemergence herbicidal rating ECHCG ([4]; rate 0.0313 kg/ha): 0.0
Preemergence herbicidal rating ECHCG ([4]; rate 0.0625 kg/ha): 0.0
Preemergence herbicidal rating ECHCG ([4]; rate 0.1250 kg/ha): 0.0
Preemergence herbicidal rating ECHCG ([4]; rate 0.2500 kg/ha): 2.0
Herbicidal rating ECHORC ([5]; Rate 0.0313 kg/ha): 6.0
Herbicidal rating ECHORC ([5]; Rate 0.0625 kg/ha): 6.0
Herbicidal rating ECHORC ([5]; Rate 0.1250 kg/ha): 9.0
Herbicidal rating ECHORC ([5]; Rate 0.2500 kg/ha): 9.0
Herbicidal rating CYPIR ([6]; Rate 0.0313 kg/ha): 0.0
Herbicidal rating CYPIR ([6]; Rate 0.0625 kg/ha): 0.0
Herbicidal rating CYPIR ([6]; Rate 0.1250 kg/ha): 6.0
Herbicidal rating CYPIR ([6]; Rate 0.2500 kg/ha): 6.0
CYPIR herbicidal effect rating ([7]; 0.0313 kg/ha): 0.0
CYPIR herbicidal effect rating ([7]; 0.0625 kg/ha): 0.0
CYPIR herbicidal effect rating ([7]; 0.1250 kg/ha): 6.0
CYPIR herbicidal effect rating ([7]; 0.2500 kg/ha): 6.0
Herbicidal rating SAGPY ([8]; Rate 0.0313 kg/ha): 0.0
Herbicidal rating SAGPY ([8]; Rate 0.0625 kg/ha): 0.0
Herbicidal rating SAGPY ([8]; Rate 0.1250 kg/ha): 0.0
Herbicidal rating SAGPY ([8]; Rate 0.2500 kg/ha): 3.0
CYPSE herbicidal effect rating ([9]; 0.0313 kg/ha): 2.0
CYPSE herbicidal effect rating ([9]; 0.0625 kg/ha): 3.0
CYPSE herbicidal effect rating ([9]; 0.1250 kg/ha): 3.0
CYPSE herbicidal effect rating ([9]; 0.2500 kg/ha): 3.0
Preemergence herbicidal rating ZEAMX ([10]; rate 0.0156 kg/ha): 0.0
Preemergence herbicidal rating ZEAMX ([10]; rate 0.0313 kg/ha): 0.0
Preemergence herbicidal rating ZEAMX ([10]; rate 0.0625 kg/ha): 0.0
Preemergence herbicidal rating ZEAMX ([10]; rate 0.1250 kg/ha): 1.0
Preemergence herbicidal rating ZEAMX ([10]; rate 0.2500 kg/ha): 3.0
ECHORC herbicidal effect rating ([11]; 0.0313 kg/ha): 6.0
ECHORC herbicidal effect rating ([11]; 0.0625 kg/ha): 6.0
ECHORC herbicidal effect rating ([11]; 0.1250 kg/ha): 9.0
ECHORC herbicidal effect rating ([11]; 0.2500 kg/ha): 9.0
Herbicidal rating CYPSE ([12]; Rate 0.0313 kg/ha): 2.0
Herbicidal rating CYPSE ([12]; Rate 0.0625 kg/ha): 3.0
Herbicidal rating CYPSE ([12]; Rate 0.1250 kg/ha): 3.0
Herbicidal rating CYPSE ([12]; Rate 0.2500 kg/ha): 3.0
ORYSAT herbicidal rating ([13]; rate 0.0158 kg/ha): 2.0
ORYSAT herbicidal rating ([13]; rate 0.0315 kg/ha): 2.5
ORYSAT herbicidal rating ([13]; rate 0.0630 kg/ha): 2.5
Preemergence herbicidal rating TRZAWR ([14]; rate 0.0156 kg/ha): 0.0
Preemergence herbicidal rating TRZAWR ([14]; rate 0.0313 kg/ha): 0.0
Preemergence herbicidal rating TRZAWR ([14]; rate 0.0625 kg/ha): 0.0
Preemergence herbicidal rating TRZAWR ([14]; rate 0.1250 kg/ha): 1.0
Preemergence herbicidal rating TRZAWR ([14]; rate 0.2500 kg/ha): 2.0
